Patent US20230203126A1, “A COMPOSITION COMPRISING S-ARRESTIN PEPTIDES” (WORG PHARMACEUTICALS (HANGZHOU) CO., LTD., priority 2019, published 2023)
No end group written: not given here.

How the values were obtained:
[1] = tested on: S-Ag-induced cell activation (IFNy production of LN cells and splenocytes); assay: Ex vivo tolerization experiment (DR2tg mice); format: in vivo
Description: FIG. 4: 9K1K alone induces tolerance towards S-Ag protein in DR2tg mice. Mice were injected subcutaneously in the flank with 0,1 µg/ml, 1 µg/ml and 10 µg/ml 9K1K on days -15, -13 and -11, followed by 3 injections of 100 µg/ml on days -8, -6 and -4 (escalating dose regime). On day 0, mice were immunized subcutaneously at the base of the tail with antigen/CFA. Mice were sacrificed 10 days after immunization to measure activation of LN cells and splenocytes upon S-Ag restimulation. IFNy concentration was measured in the culture supernatant as an indication of cell activation. Data represent mean ± SEM of the concentration of IFNy for the PBS-treated mice (black lines) and 9K1K-treated mice (grey lines). Two-way ANOVA was used to measure overall treatment effects on T cell activation. Dunnett’s multiple comparisons test was used and significant differences are indicated in the graphs (** p<0.01; **** p<0.0001). The % inhibition of IFNy production as compared to the control group is indicated in the graphs. (A) Tolerization against S-Ag in LN. IFNy production expressed as IFNy concentration (pg/ml). (B) Tolerization against S-Ag in spleen. IFNy production expressed as IFN-Y concentration (pg/ml). LN, lymph nodes. Data representative of 3 independent experiments.
FIG. 8: Treatment with peptide cocktail ATX975 reduces S-Ag-induced immune cell activation in DR2tg mice more efficiently than treatment with 9K1K alone. Mice were injected subcutaneously in the flank with 0.015 nmol, 0.15 nmol and 1.5 nmol of peptide on days -15, -13 and -11 respectively, followed by 3 injections of 15 nmol peptide on days -8, -6 and -4 (dose escalation schedule). For treatment with the cocktail (ATX975) containing 3 peptides, these doses were given per peptide (reaching a total top dose of 45 nmol peptide). On day 0, mice were immunized subcutaneously at the base of the tail with antigen/CFA. Mice were sacrificed 10 days after immunization to measure activation of splenocytes upon S-Ag restimulation. […] IFN-y production expressed as IFN-y concentration (pg/ml). […]

[2] = tested on: MHC II molecules on dendritic cells (CD11c+ cells); assay: In vivo MHC class II loading assay (DR2tg mice); set-up: species or system HLA-DR2-transgenic mice; conditions: 100 µg peptide s.c., spleen 2 h post injection, 72 h co-culture, vs PBS-injected control
Description: FIG. 1: Peptide 9K1K is correctly loaded on MHC class II in vivo. Response of peptide-specific CD4+ T cells towards peptide loaded in vivo on dendritic cells is shown. HLA-DR2-transgenic mice were injected subcutaneously with 100 µg of 9K1K peptide. 2 h post injection, spleens were dissected and CD11 c+ cells (dendritic cells) were isolated. These CD11c+ cells were co-cultured with peptide-specific CD4+ cells for 72 h at 37° C. IFNy was measured in the supernatant of these cultures to evaluate the response to peptide by the CD4+ T cells. (* p<0.05 Mann-Whitney U-test)
When 100 µg of peptide 9K1K was injected in DR2tg mice or when peptide 17JK or 15N3K was injected in DR3tg mice, these peptides could be detected on dendritic cells (CD11c+ cells) in the spleens of these mice 2 h post injection. Activation (IFNY production) of peptide-specific CD4+ T cells by the isolated CD11 c+ cells was used as a read-out. […]
DR3tg or DR2tg mice were injected with 100 µg of peptide in 100 µl PBS subcutaneously (s.c.) in the flank. […] After 72 hours, supernatant of these co-cultures was collected and CD4+ T cell activation was analysed by IFNy ELISA (R&D Systems, Abingdon, UK). In a parallel experiment, CD4+ T cell responses towards peptide added in vitro were assessed to make sure the T cells recognize the peptides presented by the CD11 c+ cells.

[3] = molecular target: HLA-DRA1*0101, DRB1*1501 (DR2) (Homo sapiens, UniProt P01903+P01911); assay: DR2
Description: Table printed on a drawing sheet, Figure 9
The patent's description of the figure: FIG. 9: Diverse patterns of in vitro peptide-MHC II binding for peptides 9K1, 17JK and 15N3K. Binding of peptides 9K1, 17JK and 15N3K to recombinant HLA-DRA1*0101, DRB1*0101 (DR1), DRB1*1501 (DR2), DRB1*0301 (DR3), DRB1*0401 (DR4), DRB1*1101 (DR11), DRB1*0405 (DR4*05) and DRB1*0901 (DR9) was assessed in vitro. IC50 values (µM) are presented and colour-coded per HLA-DR molecule. Low values (green) indicate strong binding, high values (red) indicate low(er) binding.
FIG. 9 depicts IC50 (µM) values of peptides 9K1K, 17JK and 15N3K binding to the indicated HLA-DR molecules and competing with a known competitor peptide. Values should be compared only within each HLA-DR molecule. Low IC50 values (green) indicate the strongest binder per HLA-DR molecule. Highest values per HLA-DR molecule (red) are indicative of the lowest binder for that HLA-DR molecule. Intermediate values are indicated in orange. […]
First copying reader's note: The sheet prints no unit; per the patent description the values are IC50 (µM) for peptide binding to the named HLA-DR molecules, with cell shading coding relative binding strength per HLA-DR molecule.
Where the first naming reader finds the target: description_of_the_figure: recombinant HLA-DRA1*0101, DRB1*0101 (DR1), DRB1*1501 (DR2)

- IC50 [3]: 520 nM
Substance: KKKAFVEQVANVVLKKK-NH2 [9K1K, KKKAFVEQVANVVLKKK]
- reduction of S-Ag-induced cell activation (IFNy) in spleens ([1]; dose escalation to 15 nmol per peptide s.c., cocktail vs single peptide, vs control mice (FIG. 8)): 51%
- reduction of S-Ag-induced cell activation (IFNy) in lymph nodes ([1]; single peptide escalating dose s.c., vs PBS, 10 days after immunization (FIG. 4A)): 77%
- reduction of S-Ag-induced cell activation (IFNy) in spleen ([1]; single peptide escalating dose s.c., vs PBS, 10 days after immunization (FIG. 4B)): 70%
- CD4+ T cell activation (IFNy) by CD11c+ cells isolated from spleen of injected mice [2]: significant CD4+ T cell activation
